Assay results as given in US20170217931A1, “COMPOUNDS FOR USE IN ANTHELMINTHIC TREATMENT” (Bayer Animal Health GMBH, priority 2014, published 2017).
Like-named read-outs stand apart in the source and are kept apart here.

Key:
[1] = Log P by HPLC on reversed phase columns, acidic range (EEC directive 79/831 Annex V.A8); type: physicochemical
Experimental: Measurement of Log P values was performed according to EEC directive 79/831 Annex V.A8 by HPLC (High Performance Liquid Chromatography) on reversed phase columns with the following methods: • [^a] Log P value is determined by measurement of LC-UV, in an acidic range, with 0.1% formic acid in water and acetonitrile as eluent (linear gradient from 10% acetonitrile to 95% acetonitrile). • [^b] Log P value is determined by measurement of LC-UV, in a neutral range, with 0.001 molar ammonium acetate solution in water and acetonitrile as eluent (linear gradient from 10% acetonitrile to 95% acetonitrile).
Calibration was done with straight-chain alkan-2-ones (with 3 to 16 carbon atoms) with known Log P values (measurement of Log P values using retention times with linear interpolation between successive alkanones). Lambda-max-values were determined using UV-spectra from 200 nm to 400 nm and the peak values of the chromatographic signals.

Cooperia curticei = test: microbe, parasite or virus in culture; type: cell-based; conditions: 120 h, read-out: activity (larval mortality)
Experimental: (§1) To produce a suitable preparation of active compound, 10 mg of active compound are dissolved in 0.5 ml dimethyl sulfoxide, and the concentrate is diluted with “Ringer's solution” to the desired concentration.
Approximately 40 nematode larvae (Cooperia curticei) are transferred into a test tube containing the compound solution. After 5 days percentage of larval mortality is recorded. 100% efficacy means all larvae are killed; 0% efficacy means no larvae are killed.

Haemonchus contortus = test: microbe, parasite or virus in culture; type: cell-based; conditions: 120 h, read-out: activity (larval mortality)
Experimental: as §1
Approximately 40 larvae of the red stomach worm (Haemonchus contortus) are transferred into a test tube containing compound solution. After 5 days percentage of larval mortality are recorded. 100% efficacy means all larvae are killed, 0% efficacy means no larvae are killed.

[2] = reversed phase HPLC columns; LC-UV, acidic range, 0.1% formic acid in water and acetonitrile; read-out: logP a) (HCOOH)
[3] = 20 ppm, after 5 days, Cooperia curticei larvae
[4] = 4 ppm, after 5 days, Cooperia curticei larvae
[5] = 20 ppm, after 5 days, Haemonchus contortus larvae

SMILES	chromatographic logP [1, 2]	mortality at 20 ppm (Cooperia curticei; [3]) [%]	chromatographic logP [1]	mortality at 4 ppm (Cooperia curticei; Cooperia curticei) [%]	mortality at 20 ppm (Cooperia curticei; Cooperia curticei) [%]	mortality at 20 ppm (Haemonchus contortus; Haemonchus contortus) [%]	mortality at 4 ppm (Cooperia curticei; [4]) [%]	mortality at 20 ppm (Haemonchus contortus; [5]) [%]	chromatographic logP ([1]; LC-UV, acidic range, 0.1% formic acid in water and acetonitrile; read-out: logP a) (HCOOH))
O=C(NCC(F)(F)c1ncc(-c2cnn(CC(F)(F)F)c2)cc1Cl)c1nccnc1C(F)(F)F [Example 17]	2.85	100	–	–	–	–	–	–	–
O=C(NCC(F)(F)c1ncc(-n2cc(Cl)cn2)cc1Cl)c1ccccc1C(F)(F)F [Example 12]	–	–	3.5	≥ 90	100	100	–	–	–
O=C(NCC(F)(F)c1ncc(-n2ccc(C(F)(F)F)n2)cc1Cl)c1nccnc1C(F)(F)F [Example 8]	–	–	3.49	≥ 90	100	–	–	–	–
O=C(NCC(F)(F)c1ncc(-n2cc(F)cn2)cc1Cl)c1ccccc1C(F)(F)F [Example 5]	3.12	100	–	–	–	–	≥ 90	90	–
O=C(NCC(F)(F)c1ncc(-n2cc(Cl)cn2)cc1Cl)c1cccnc1C(F)(F)F [Example 18]	3.07	100	–	–	–	–	≥ 90	100	–
O=C(NCC(F)(F)c1ncc(-n2cc(C(F)(F)F)cn2)cc1Cl)c1nccnc1C(F)(F)F [Example 10]	3.43	100	–	–	–	–	≥ 90	100	–
Cn1c(C(F)(F)F)nn(-c2cnc(C(F)(F)CNC(=O)c3ccccc3C(F)(F)F)c(Cl)c2)c1=O [Example 6]	–	–	3.32	≥ 90	100	100	–	–	–
Cc1occc1-c1cnc(C(F)(F)CNC(=O)c2ccccc2C(F)(F)F)c(Cl)c1 [Example 2]	3.53	100	–	–	–	–	≥ 90	90	–
O=C(NCC(F)(F)c1ncc(-n2cc(C(F)(F)F)cn2)cc1Cl)c1cccnc1C(F)(F)F [Example 14]	3.24	100	–	–	–	–	≥ 90	100	–
O=C(NCC(F)(F)c1ncc(-c2cnn(CC(F)(F)F)c2)cc1Cl)c1cccnc1C(F)(F)F [Example 16]	2.66	100	–	–	–	–	–	–	–
O=C(NCC(F)(F)c1ncc(-n2ccc(C(F)(F)F)n2)cc1Cl)c1ccccc1C(F)(F)F [Example 11]	–	–	3.63	≥ 90	100	100	–	–	–
Cn1ccc(-c2cnc(C(F)(F)CNC(=O)c3ccccc3C(F)(F)F)c(Cl)c2)c1 [Example 4]	3.22	–	–	–	–	–	≥ 90	–	–
O=C(NCC(F)(F)c1ncc(-n2cc(F)cn2)cc1Cl)c1nccnc1C(F)(F)F [Example 7]	2.88	–	–	–	–	–	–	–	–
O=C(NCC(F)(F)c1ncc(-n2cc(F)cn2)cc1Cl)c1cccnc1C(F)(F)F [Example 9]	2.7	100	–	–	–	–	≥ 90	–	–
O=C(NCC(F)(F)c1ncc(-n2ccc(C(F)(F)F)n2)cc1Cl)c1cccnc1C(F)(F)F [Example 13]	3.27	100	–	–	–	–	≥ 90	–	–
O=C(NCC(F)(F)c1ncc(-c2ccoc2)cc1Cl)c1ccccc1C(F)(F)F [Example 1]	–	–	–	≥ 90	100	–	–	–	3.21
O=C(NCC(F)(F)c1ncc(-n2cc(C(F)(F)F)cn2)cc1Cl)c1ccccc1C(F)(F)F [Example 3, N-[2-[3-chloro-5-[4-(trifluoromethyl)pyrazol-1-yl]-2-pyridyl]-2,2-difluoro-ethyl]-2-(trifluoromethyl)benzamide]	–	–	3.62	≥ 90	100	100	–	–	–
O=C(NCC(F)(F)c1ncc(-c2cnn(CC(F)(F)F)c2)cc1Cl)c1ccccc1C(F)(F)F [Example 15]	3.1	100	–	–	–	–	≥ 90	–	–
